Results published in patent US11766425B2, “Antibiotic combination therapies” (BIOVERSYS AG, priority 2019, dated 2023).
Where two headings read alike, the source gives them in different places.

Columns and labels:
Format in all cases: cell-based, Acinetobacter baumannii
A. baumannii 401046-18 = test: broth microdilution checkerboard MIC/synergy; settings: for MIC: Acinetobacter baumannii, 40104618, strain 401046-18, antibiotic alone, read-out: MICs alone; for MICs combi: strain 401046-18
Experimental: (§1) Checkerboards were performed according to the CLSI parameters used for microbroth dilution MIC5. CA-MHB, iron-depleted CA-MHB (ID-CA-MHB) or RPMI supplemented with 10% FCS medium were used as specified and ID-CA-MHB was prepared according to CLSI guidelines. […] FICI is calculated as follows: […]

A. baumannii 401255-18 = test: broth microdilution checkerboard MIC/synergy; settings: for MIC: Acinetobacter baumannii, 40125518, strain 401255-18, antibiotic alone, read-out: MICs alone; for MICs combi: strain 401255-18
Experimental: as §1

A. baumannii 402292-17 = test: broth microdilution checkerboard MIC/synergy; settings: for MIC: Acinetobacter baumannii, 40229217, strain 402292-17, antibiotic alone, read-out: MICs alone; for MICs combi: strain 402292-17
Experimental: as §1

A. baumannii 402608-17 = test: broth microdilution checkerboard MIC/synergy; settings: for MIC: Acinetobacter baumannii, 40260817, strain 402608-17, antibiotic alone, read-out: MICs alone; for MICs combi: strain 402608-17
Experimental: as §1

A. baumannii HUMC1 = test: broth microdilution checkerboard MIC/synergy; settings: for MIC: Acinetobacter baumannii, HUMC1, read-out: MICs alone; for MICs combi: strain HUMC1
Experimental: as §1

A. baumannii IHMA1013816 = test: broth microdilution checkerboard MIC/synergy; settings: for MICs combi: strain IHMA1013816
Experimental: as §1

A. baumannii IHMA690517 = test: broth microdilution checkerboard MIC/synergy; settings: for MIC: Acinetobacter baumannii, IHMA690517, strain IHMA690517, antibiotic alone, read-out: MICs alone; for MICs combi: strain IHMA690517
Experimental: as §1

A. baumannii IHMA863866 = test: broth microdilution checkerboard MIC/synergy
Experimental: as §1

A. baumannii IHMA867231 = test: broth microdilution checkerboard MIC/synergy; settings: for MIC: Acinetobacter baumannii, IHMA867231, strain IHMA867231, antibiotic alone, read-out: MICs alone; for MICs combi: strain IHMA867231
Experimental: as §1

A. baumannii IHMA919656 = test: broth microdilution checkerboard MIC/synergy; settings: for MICs combi: strain IHMA919656
Experimental: as §1

A. baumannii UNT087-1 = test: broth microdilution checkerboard MIC/synergy; settings: for MIC: Acinetobacter baumannii, UNT0871, strain UNT087-1, antibiotic alone, read-out: MICs alone; for MICs combi: strain UNT087-1
Experimental: as §1

A. baumannii UNT091-1 = test: broth microdilution checkerboard MIC/synergy; settings: for MIC: Acinetobacter baumannii, UNT0911, strain UNT091-1, antibiotic alone, read-out: MICs alone
Experimental: as §1

A. baumannii UNT191-1 = test: broth microdilution checkerboard MIC/synergy; settings: for MIC: Acinetobacter baumannii, UNT1911, strain UNT191-1, antibiotic alone, read-out: MICs alone; for MICs combi: strain UNT191-1
Experimental: as §1

A. baumannii UNT238-1 = test: broth microdilution checkerboard MIC/synergy; settings: ID-CA-MHB
Experimental: as §1

A. baumannii UNT239-1 = test: broth microdilution checkerboard MIC/synergy; settings: for MICs combi: strain UNT239-1
Experimental: as §1

[1] = system: A. baumannii LAC-4 strain; test: broth microdilution checkerboard MIC/synergy; settings: for FICI / Interpretation: second antibiotic in combination with rifabutin, LAC-4; for MICs combi: strain LAC-4
Experimental: as §1
The checkerboards were performed in CA-MHB or ID-CA-MHB for cefiderocol.

[2] = system: panel of MDR clinical isolates of A. baumannii
Experimental: as §1

[3] = rifabutin/cefiderocol checkerboard, ID-CA-MHB
[4] = rifabutin/cefiderocol in combination, ID-CA-MHB
[5] = rifabutin/cefiderocol checkerboard
[6] = rifabutin/cefiderocol in combination
[7] = rifampicin/colistin checkerboard
[8] = rifampicin/colistin in combination

## CC(C)(O/N=C(\C(=O)N[C@@H]1C(=O)N2C(C(=O)[O-])=C(C[N+]3(CCNC(=O)c4ccc(O)c(O)c4Cl)CCCC3)CS[C@H]12)c1csc(N)n1)C(=O)O [Cefiderocol, cefiderocol]
A. baumannii 401046-18; [3]
  MIC: 128 µg/mL
A. baumannii 401046-18; [4]
  MICs combi: 32 mg/L
A. baumannii 401255-18; [5]
  MIC: 16 µg/mL
A. baumannii 401255-18; [6]
  MICs combi: 4 mg/L
A. baumannii 402292-17; [5]
  MIC: > 32 µg/mL
A. baumannii 402292-17; [6]
  MICs combi: 8 mg/L
A. baumannii 402608-17; [5]
  MIC: 8 µg/mL
A. baumannii 402608-17; [6]
  MICs combi: 2 mg/L
A. baumannii HUMC1
  MIC: 2 µg/mL
A. baumannii HUMC1; [6]
  MICs combi: 0.5 mg/L
A. baumannii IHMA1013816; Acinetobacter baumannii, IHMA1013816, strain IHMA1013816, antibiotic alone, rifabutin/cefiderocol checkerboard, read-out: MICs alone
  MIC: 0.06 µg/mL
A. baumannii IHMA1013816; [6]
  MICs combi: 0.016 mg/L
A. baumannii IHMA690517; [5]
  MIC: 0.25 µg/mL
A. baumannii IHMA690517; [6]
  MICs combi: 0.06 mg/L
A. baumannii IHMA863866; Acinetobacter baumannii, IHMA863866, read-out: MICs alone
  MIC: 4 µg/mL
A. baumannii IHMA863866; strain IHMA863866, rifabutin/cefiderocol in combination
  MICs combi: 1 mg/L
A. baumannii IHMA867231; [5]
  MIC: 1 µg/mL
A. baumannii IHMA867231; [6]
  MICs combi: 0.25 mg/L
A. baumannii IHMA919656; Acinetobacter baumannii, IHMA919656, strain IHMA919656, antibiotic alone, rifabutin/cefiderocol checkerboard, read-out: MICs alone
  MIC: 0.125 µg/mL
A. baumannii IHMA919656; [6]
  MICs combi: 0.03 mg/L
A. baumannii UNT087-1; [5]
  MIC: 0.5 µg/mL
A. baumannii UNT087-1; [6]
  MICs combi: 0.125 mg/L
A. baumannii UNT091-1; [5]
  MIC: 4 µg/mL
A. baumannii UNT091-1; strain UNT091-1, rifabutin/cefiderocol in combination
  MICs combi: 1 mg/L
A. baumannii UNT191-1; [3]
  MIC: 16 µg/mL
A. baumannii UNT191-1; [4]
  MICs combi: 4 mg/L
A. baumannii UNT238-1; Acinetobacter baumannii, UNT2381, strain UNT238-1, antibiotic alone, rifabutin/cefiderocol checkerboard, read-out: MICs alone
  MIC: 4 µg/mL
A. baumannii UNT238-1; strain UNT238-1, rifabutin/cefiderocol in combination
  MICs combi: 1 mg/L
A. baumannii UNT239-1; Acinetobacter baumannii, UNT2391, read-out: MICs alone
  MIC: 4 µg/mL
A. baumannii UNT239-1; [4]
  MICs combi: 1 mg/L
[1]; Acinetobacter baumannii, LAC4STRAIN, read-out: MICs alone
  MIC: 1 µg/mL
[1]; ID-CA-MHB
  FICI: 0.5
  Interpretation: synergy (synergy (FICI≤0.5))
[1]; [4]
  MICs combi: 0.25 mg/L
[2]; in combination with rifabutin, all A. baumannii strains tested (16 MDR isolates)
  decrease in the MIC of cefiderocol: ≥ 4 fold
[2]; rifabutin/cefiderocol, panel of strains
  strains on which synergy was observed: 100%

## CO/N=C(\C(=O)N[C@@H]1C(=O)N2C(C(=O)O)=C(COC(C)=O)CS[C@H]12)c1csc(N)n1 [Cefotaxime, cefotaxime]
[1]; CA-MHB
  FICI: 1.5
  Interpretation: indifferent (indifferent (FICI>0.50 and ≤4))

## CN(C)[C@@H]1C(O)=C(C(N)=O)C(=O)[C@@]2(O)C(O)=C3C(=O)c4c(O)c(NC(=O)CN5CCCC5)cc(F)c4C[C@H]3C[C@@H]12 [Eravacycline, eravacycline]
[1]; CA-MHB
  FICI: 1
  Interpretation: indifferent (indifferent (FICI>0.50 and ≤4))

## C[C@@H](O)[C@H]1C(=O)N2C(C(=O)O)=C(S[C@@H]3CN[C@H](C(=O)N(C)C)C3)[C@H](C)[C@H]12 [Meropenem, meropenem]
[1]; CA-MHB
  FICI: 1
  Interpretation: indifferent (indifferent (FICI>0.50 and ≤4))

## CN(C)c1ccc(O)c2c1C[C@H]1C[C@H]3[C@H](N(C)C)C(O)=C(C(N)=O)C(=O)[C@@]3(O)C(O)=C1C2=O [Minocycline, minocycline]
[1]; CA-MHB
  FICI: 1
  Interpretation: indifferent (indifferent (FICI>0.50 and ≤4))

## CO[C@H]1/C=C/O[C@@]2(C)Oc3c(C)c(O)c4c(O)c(c(/C=N/N5CCN(C)CC5)c(O)c4c3C2=O)NC(=O)/C(C)=C\C=C\[C@H](C)[C@H](O)[C@@H](C)[C@@H](O)[C@@H](C)[C@H](OC(C)=O)[C@@H]1C [Rifampicin, rifampicin]
A. baumannii 401046-18; [7]
  MIC: 512 µg/mL
A. baumannii 401046-18; [8]
  MICs combi: 64 mg/L
A. baumannii 401255-18; [7]
  MIC: 512 µg/mL
A. baumannii 401255-18; [8]
  MICs combi: 128 mg/L
A. baumannii 402292-17; [7]
  MIC: 512 µg/mL
A. baumannii 402292-17; [8]
  MICs combi: 256 mg/L
A. baumannii 402608-17; [7]
  MIC: 512 µg/mL
A. baumannii 402608-17; [8]
  MICs combi: 64 mg/L
A. baumannii HUMC1
  MIC: 4 µg/mL
A. baumannii HUMC1; [8]
  MICs combi: 1 mg/L
A. baumannii IHMA1013816; [8]
  MICs combi: 0.06 mg/L
A. baumannii IHMA690517; [7]
  MIC: 4 µg/mL
A. baumannii IHMA690517; [8]
  MICs combi: 0.06 mg/L
A. baumannii IHMA867231; [7]
  MIC: 512 µg/mL
A. baumannii IHMA867231; [8]
  MICs combi: 32 mg/L
A. baumannii IHMA919656; [8]
  MICs combi: 0.03 mg/L
A. baumannii UNT087-1; [7]
  MIC: 4 µg/mL
A. baumannii UNT087-1; [8]
  MICs combi: 4 mg/L
A. baumannii UNT091-1; [7]
  MIC: 4 µg/mL
A. baumannii UNT191-1; [7]
  MIC: 4 µg/mL
A. baumannii UNT191-1; [8]
  MICs combi: 0.25 mg/L
A. baumannii UNT239-1; [8]
  MICs combi: 0.25 mg/L
[1]; [8]
  MICs combi: 0.06 mg/L
[2]; in combination with colistin, isolates with mutations in the rpoB gene
  rifampicin combination MICs: ≥ 32 mg/L
[2]; rifampicin with colistin
  strains on which synergy was observed: 88%

## NC[C@H]1O[C@H](O[C@H]2[C@H](O)[C@@H](O[C@H]3O[C@H](CO)[C@@H](O)[C@H](N)[C@H]3O)[C@H](N)C[C@@H]2N)[C@H](N)C[C@@H]1O [Tobramycin, tobramycin]
[1]; CA-MHB
  FICI: 1.5
  Interpretation: indifferent (indifferent (FICI>0.50 and ≤4))
